Numbered stars: 1 amine (or outer) side, 2 acyl side, 3 side chain; on linkers, the order of the positions; unused ones are H or OH. Bridge positions count the residues as written; N and C are the ends. Square brackets hold non-standard residues; d marks the D form. Peptide text beside a SMILES is read from it. * marks the point of attachment. ξ: configuration not given here. Bip = N[C@@H](Cc1ccc(-c2ccccc2)cc1)C(=O)O; Phe(3-Me) = Cc1cccc(C[C@H](N)C(=O)O)c1; X5 = CC(C)(CCN)[C@H](N[*:1])C(=O)[*:2]; γGlu = O=C(O)[C@H](CCC(=O)[*:2])N[*:1]; Val(3-OH) = CC(C)(O)[C@H](N)C(=O)O; hArg = N=C(N)NCCCC[C@H](N)C(=O)O; 4Pal = N[C@@H](Cc1ccncc1)C(=O)O; Cha = N[C@@H](CC1CCCCC1)C(=O)O; Cit = NC(=O)NCCC[C@H](N)C(=O)O; aThr = C[C@H](O)[C@H](N)C(=O)O; Thr(3ξ) = CC(O)[C@H](N)C(=O)O; 12Ado = NCCCCCCCCCCCC(=O)O; Carboxymethyl = O=C(O)C*; Orn = NCCC[C@H](N)C(=O)O; Pra = C#CC[C@H](N)C(=O)O; Aun = NCCCCCCCCCCC(=O)O; Dab = NCC[C@H](N)C(=O)O; Dap = NC[C@H](N)C(=O)O; AEEA = NCCOCCOCC(=O)O
What follows are molecules tested against T1, PD-1/PD-L1 interaction (PE-labeled human PD-L1-Ig binding to Jurkat cell line over-expressing human PD-1) (Homo sapiens, UniProt Q15116) (assay: Jurkat-PD-1 Cell Binding High-Content Screening Assay (CBA)). Details: Jurkat cell line over-expressing human PD-1; PE-labeled PD-L1-Ig 20 nM final; read-out: Jurkat hPD1-PDL1 IC50.
T1 construct: expressed in transfected cells; host or cells: Jurkat
T1 sequence (Q15116 25-288): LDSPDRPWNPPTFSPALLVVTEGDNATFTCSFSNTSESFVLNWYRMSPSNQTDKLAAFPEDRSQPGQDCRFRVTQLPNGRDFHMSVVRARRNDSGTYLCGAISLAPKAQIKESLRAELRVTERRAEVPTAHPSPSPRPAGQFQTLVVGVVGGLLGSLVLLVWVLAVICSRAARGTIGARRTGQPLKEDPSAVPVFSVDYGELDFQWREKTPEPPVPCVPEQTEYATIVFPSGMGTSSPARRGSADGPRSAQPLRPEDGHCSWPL
Format: cell-based
In short: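 Jurkat-hPD-1 cells, DMEM/10% FCS; cpd 2 h 37° C; PE-PD-L1-Ig 20 nM final, 1 h; 4% PFA fix + Hoechst 33342, 3× dPBS wash; high-content imaging read-out.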

| Compound | IC50 [nM] |
| --- | --- |
| Cc1cccc(C[C@@H]2NC(=O)[C@H](CC(=O)O)NC(=O)[C@H](Cc3ccc(OCC(=O)O)cc3)NC(=O)[C@H](CCCNC(=N)N)NC(=O)CSC[C@@H](C(=O)N[C@@H](CCN)C(=O)NCCCCCCCCCCC(=O)O)NC(=O)[C@H](CO)NC(=O)[C@H](C(C)O)NC(=O)[C@H](CC3CCCCC3)NC(=O)[C@H](CCN)NC(=O)[C@@H](CC(C)C)NC(=O)[C@H](CCCN)NC(=O)[C@H](Cc3ccc(OCC(=O)O)cc3)NC(=O)[C@H](Cc3ccc(-c4ccccc4)cc3)NC(=O)[C@H](Cc3ccc(OCC(=O)O)cc3)NC2=O)c1 (stereo partly drawn) [Compound 3530] ({CH2CO}-RY(Carboxymethyl)D[Phe(3-Me)]Y(Carboxymethyl)[Bip]Y(Carboxymethyl)[Orn][dL][Dab][Cha][Thr(3ξ)]SC[Dab][Aun]-OH; thioether N-14) | 7.3 |
| Cc1cccc(C[C@@H]2NC(=O)[C@H](CC(=O)O)NC(=O)[C@H](Cc3ccc(OCC(=O)O)cc3)NC(=O)[C@H](CCCNC(=N)N)NC(=O)CSC[C@@H](C(=O)N[C@H](C(=O)NCCCCCCCCCCC(=O)O)C(C)(C)CCN)NC(=O)[C@H]([C@@H](C)O)NC(=O)[C@H](C(C)C)NC(=O)[C@H](CC3CCCCC3)NC(=O)[C@H](CCN)NC(=O)[C@@H](CC(C)C)NC(=O)[C@H](CCCN)NC(=O)[C@H](Cc3ccc(OCC(=O)O)cc3)NC(=O)[C@H](Cc3ccc(-c4ccccc4)cc3)NC(=O)[C@H](Cc3ccc(O)cc3)NC2=O)c1 [Compound 2116] ({CH2CO}-RY(Carboxymethyl)D[Phe(3-Me)]Y[Bip]Y(Carboxymethyl)[Orn][dL][Dab][Cha]VTC[X5][Aun]-OH; thioether N-14) | 53.5 |
| Cc1cccc(C[C@@H]2NC(=O)[C@H](CC(=O)O)NC(=O)[C@H](Cc3ccc(OCC(=O)O)cc3)NC(=O)[C@H](CCN)NC(=O)CSC[C@@H](C(=O)N[C@@H](CCN)C(=O)NCCCCCCCCCCC(=O)O)NC(=O)[C@H](CCCN)NC(=O)[C@H](C(C)(C)O)NC(=O)[C@H](CC3CCCCC3)NC(=O)[C@H](CCN)NC(=O)[C@@H](CC(C)C)NC(=O)[C@H](CCCN)NC(=O)[C@H](Cc3ccc(OCC(=O)O)cc3)NC(=O)[C@H](Cc3ccc(-c4ccccc4)cc3)NC(=O)[C@H](Cc3ccc(OCC(=O)O)cc3)NC2=O)c1 [Compound 3634] ({CH2CO}-[Dab]Y(Carboxymethyl)D[Phe(3-Me)]Y(Carboxymethyl)[Bip]Y(Carboxymethyl)[Orn][dL][Dab][Cha][Val(3-OH)][Orn]C[Dab][Aun]-OH; thioether N-14) | 6.3 |
| CCC(C)[C@@H]1NC(=O)[C@H](Cc2ccc(-c3ccccc3)cc2)NC(=O)[C@H](C(C)C)NC(=O)[C@H](Cc2cccc(C)c2)NC(=O)[C@H](CC(=O)O)NC(=O)[C@H](Cc2ccc(OCC(=O)O)cc2)NC(=O)[C@H](C(C)O)NC(=O)CSC[C@@H](C(=O)N[C@@H](CCCN)C(=O)NCCCCCCCCCCCC(=O)O)NC(=O)[C@H](C(C)O)NC(=O)[C@H](C(C)C)NC(=O)[C@H](CC2CCCCC2)NC(=O)[C@H](CCN)NC(=O)[C@@H](CC(C)C)NC(=O)[C@H](CCCN)NC1=O (stereo partly shown) [Compound 3098] | 25.6 |
| Cc1cccc(C[C@@H]2NC(=O)[C@H](CC(=O)O)NC(=O)[C@H](Cc3ccc(OCC(=O)O)cc3)NC(=O)[C@H](CCCNC(=N)N)NC(=O)CSC[C@@H](C(=O)N[C@@H](CCN)C(=O)NCCCCCCCCCCC(=O)O)NC(=O)[C@H](CCC(N)=O)NC(=O)[C@H](C(C)C)NC(=O)[C@H](CC3CCCCC3)NC(=O)[C@H](CCN)NC(=O)[C@@H](CC(C)C)NC(=O)[C@H](CCN)NC(=O)[C@H](CCCNC(N)=O)NC(=O)[C@H](Cc3ccc(-c4ccccc4)cc3)NC(=O)[C@H](C(C)C)NC2=O)c1 [Compound 2797] ({CH2CO}-RY(Carboxymethyl)D[Phe(3-Me)]V[Bip][Cit][Dab][dL][Dab][Cha]VQC[Dab][Aun]-OH; thioether N-14) | 11.8 |

Continued, values first:

| IC50 [nM] | Compound |
| --- | --- |
| 13.9 | Cc1cccc(C[C@@H]2NC(=O)[C@H](CC(=O)O)NC(=O)[C@H](Cc3ccc(OCC(=O)O)cc3)NC(=O)[C@H](CN)NC(=O)CSC[C@@H](C(=O)N[C@@H](C)C(=O)N[C@@H](CCCCN)C(=O)NCC(=O)NCCCCCCCCCCC(=O)O)NC(=O)[C@H]([C@@H](C)O)NC(=O)[C@H](C(C)C)NC(=O)[C@H](CC3CCCCC3)NC(=O)[C@H](CCN)NC(=O)[C@@H](CC(C)C)NC(=O)[C@H](CCCN)NC(=O)[C@H](CCCNC(N)=O)NC(=O)[C@H](Cc3ccc(-c4ccccc4)cc3)NC(=O)[C@H](C(C)C)NC2=O)c1 [Compound 1066] ({CH2CO}-[Dap]Y(Carboxymethyl)D[Phe(3-Me)]V[Bip][Cit][Orn][dL][Dab][Cha]VTCAKG[Aun]-OH; thioether N-14) |
| 35.9 | CC(C)C[C@H]1NC(=O)[C@H](CCCN)NC(=O)[C@H](C(C)C)NC(=O)[C@H](Cc2ccc(-c3ccccc3)cc2)NC(=O)[C@H](C(C)C)NC(=O)[C@H](Cc2c[nH]c3ccccc23)NC(=O)[C@H](CC(=O)O)NC(=O)[C@H](Cc2ccc(OCC(=O)O)cc2)NC(=O)[C@H](CN)NC(=O)CSC[C@@H](C(=O)NCCOCCOCC(=O)N[C@H](CC(=O)O)C(=O)NCCCCCCCCCCC(=O)O)NC(=O)[C@H]([C@@H](C)O)NC(=O)[C@H](C(C)C)NC(=O)[C@H](CC2CCCCC2)NC(=O)[C@H](Cc2cnc[nH]2)NC1=O [Compound 1132] ({CH2CO}-[Dap]Y(Carboxymethyl)DWV[Bip]V[Orn][dL]H[Cha]VTC[AEEA][dD][Aun]-OH; thioether N-14) |
| 31.6 | CC(C)C[C@H]1NC(=O)[C@H](CCCN)NC(=O)[C@H](C(C)C)NC(=O)[C@H](Cc2ccc(-c3ccccc3)cc2)NC(=O)[C@H](C(C)C)NC(=O)[C@H](Cc2c[nH]c3ccccc23)NC(=O)[C@H](CC(=O)O)NC(=O)[C@H](Cc2c[nH]cn2)NC(=O)[C@H](CCCCNC(=N)N)NC(=O)CSC[C@@H](C(=O)N[C@@H](CCN)C(=O)NCCCCCCCCCCC(=O)O)NC(=O)[C@H](CO)NC(=O)[C@H](C(C)C)NC(=O)[C@H](CC2CCCCC2)NC(=O)[C@H](CCN)NC1=O [Compound 3271] ({CH2CO}-[hArg]HDWV[Bip]V[Orn][dL][Dab][Cha]VSC[Dab][Aun]-OH; thioether N-14) |
| 4 | Cc1cccc(C[C@@H]2NC(=O)[C@H](CC(=O)O)NC(=O)[C@H](Cc3ccc(OCC(=O)O)cc3)NC(=O)[C@H]([C@H](C)O)NC(=O)CSC[C@@H](C(=O)N[C@H](CC(N)=O)C(=O)NCCOCCOCC(=O)NCCCCCCCCCCC(=O)O)NC(=O)[C@H](CCCCN)NC(=O)[C@H](C(C)C)NC(=O)[C@H](CC3CCCCC3)NC(=O)[C@H](CCN)NC(=O)[C@@H](CC(C)C)NC(=O)[C@H](CCN)NC(=O)[C@H](C(C)C)NC(=O)[C@H](Cc3ccc(-c4ccccc4)cc3)NC(=O)[C@H](C(C)C)NC2=O)c1 [Compound 3256] ({CH2CO}-[aThr]Y(Carboxymethyl)D[Phe(3-Me)]V[Bip]V[Dab][dL][Dab][Cha]VKC[dN][AEEA][Aun]-OH; thioether N-14) |
| 21.7 | CC(C)C[C@@H]1NC(=O)[C@H](Cc2c[nH]c3ccccc23)NC(=O)[C@H](CC(=O)O)NC(=O)[C@H](Cc2ccc(OCC(=O)O)cc2)NC(=O)[C@H](CCCCNC(=N)N)NC(=O)CSC[C@@H](C(=O)NCC(=O)NCCOCCOCC(=O)N[C@@H](CCCN)C(=O)NCCOCCOCC(=O)NCCCCCCCCCCCC(=O)O)NC(=O)[C@H](CO)NC(=O)[C@H](C(C)C)NC(=O)[C@H](CC2CCCCC2)NC(=O)[C@H](CCN)NC(=O)[C@@H](CC(C)C)NC(=O)[C@H](CCCN)NC(=O)[C@H](C(C)C)NC(=O)[C@H](Cc2ccc(-c3ccccc3)cc2)NC1=O [Compound 3189] ({CH2CO}-[hArg]Y(Carboxymethyl)DWL[Bip]V[Orn][dL][Dab][Cha]VSCG[AEEA][Orn][AEEA][12Ado]-OH; thioether N-14) |
| 37.4 | C#CC[C@H](NC(=O)COCCOCCNC(=O)[C@H](CCCN)NC(=O)[C@@H]1CSCC(=O)N[C@@H](Cc2ccncc2)C(=O)N[C@@H](Cc2ccc(OCC(=O)O)cc2)C(=O)N[C@@H](CC(=O)O)C(=O)N[C@@H](Cc2c[nH]c3ccccc23)C(=O)N[C@@H](C(C)C)C(=O)N[C@@H](Cc2ccc(-c3ccccc3)cc2)C(=O)N[C@@H]([C@@H](C)CC)C(=O)N[C@@H](CCCN)C(=O)N[C@H](CC(C)C)C(=O)N[C@@H](CCN)C(=O)N[C@@H](CC(C)C)C(=O)N[C@@H](C(C)C)C(=O)N[C@@H]([C@@H](C)O)C(=O)N1)C(=O)N[C@@H](CCCNC(=N)N)C(=O)NCCCCCCCCCCC(=O)O [Compound 1203] ({CH2CO}-[4Pal]Y(Carboxymethyl)DWV[Bip]I[Orn][dL][Dab]LVTC[Orn][AEEA][Pra]R[Aun]-OH; thioether N-14) |
| 9.6 | CC(C)C[C@H]1NC(=O)[C@H](CCCN)NC(=O)[C@H](C(C)C)NC(=O)[C@H](Cc2ccc(-c3ccccc3)cc2)NC(=O)[C@H](C(C)C)NC(=O)[C@H](Cc2c[nH]c3ccccc23)NC(=O)[C@H](CC(=O)O)NC(=O)[C@H](Cc2ccc(OCC(=O)O)cc2)NC(=O)[C@H](CN)NC(=O)CSC[C@@H](C(=O)N[C@@H](CCN)C(=O)NCCOCCOCC(=O)N[C@@H](CCC(=O)NCCCCCCCCCCC(=O)O)C(=O)O)NC(=O)[C@H](CCN)NC(=O)[C@H](C(C)O)NC(=O)[C@H](CC2CCCCC2)NC(=O)[C@H](CCN)NC1=O (stereo partly drawn) [Compound 3679] ({CH2CO}-[Dap]Y(Carboxymethyl)DWV[Bip]V[Orn][dL][Dab][Cha][Thr(3ξ)][Dab]C[Dab][AEEA][γGlu][Aun]-OH; thioether N-14) |
| 5 | Cc1cccc(C[C@@H]2NC(=O)[C@H](CC(=O)O)NC(=O)[C@H](Cc3ccc(OCC(=O)O)cc3)NC(=O)[C@H](CCCNC(=N)N)NC(=O)CSC[C@@H](C(=O)NCCOCCOCC(=O)N[C@@H](CCN)C(=O)NCCCCCCCCCCC(=O)O)NC(=O)[C@H](CCCCN)NC(=O)[C@H](C(C)C)NC(=O)[C@H](CC3CCCCC3)NC(=O)[C@H](CN)NC(=O)[C@@H](CC(C)C)NC(=O)[C@H](CCCN)NC(=O)[C@H](C(C)C)NC(=O)[C@H](Cc3ccc(-c4ccccc4)cc3)NC(=O)[C@H](C(C)C)NC2=O)c1 [Compound 3293] ({CH2CO}-RY(Carboxymethyl)D[Phe(3-Me)]V[Bip]V[Orn][dL][Dap][Cha]VKC[AEEA][Dab][Aun]-OH; thioether N-14) |

Source: patent publication US20260022142A1, “MACROCYCLIC IMMUNOMODULATORS” (Bristol-Myers Squibb Company, priority 2022, published 2026)
